Test results taken from publication PMC3015019 (Biological psychiatry, 2010).
Where a name gives a salt, the structure may show the parent alone.

Key:
[1] = tested on: DA levels in dialysates from the NAc shell; assay: In-vivo microdialysis of extracellular DA in the NAc shell of freely moving rats; conditions: rat; for time for DA levels to return to basal levels after injection: cocaine: highest dose
σ2 receptor = biological target: T1, σ2 receptor (Cavia porcellus, UniProt H0V073); assay: Sigma 2 receptor binding, [3H]DTG displacement in presence of; design: species or system guinea pig; conditions: ratio of σ2 to σ1 affinity values
T1 sequence (H0V073 1-176): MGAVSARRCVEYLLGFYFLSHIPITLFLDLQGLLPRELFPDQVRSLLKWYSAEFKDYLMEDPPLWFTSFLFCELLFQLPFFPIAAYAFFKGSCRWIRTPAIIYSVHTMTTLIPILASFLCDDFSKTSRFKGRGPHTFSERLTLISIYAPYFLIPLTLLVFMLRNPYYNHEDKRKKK

σ1 receptor = σ1 receptor (Cavia porcellus, UniProt Q60492); assay: Sigma 1 receptor binding, [3H]; design: species or system guinea pig
Chain of σ1 receptor (Q60492 whole entry): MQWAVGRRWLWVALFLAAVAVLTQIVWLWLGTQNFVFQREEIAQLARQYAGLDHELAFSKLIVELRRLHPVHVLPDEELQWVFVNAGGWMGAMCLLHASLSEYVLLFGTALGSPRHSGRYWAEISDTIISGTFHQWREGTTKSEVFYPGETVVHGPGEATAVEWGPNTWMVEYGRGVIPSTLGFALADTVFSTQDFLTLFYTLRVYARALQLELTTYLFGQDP

[2] = 10–30 mg/kg i.p., administered alone

CN(CCc1ccc(Cl)c(Cl)c1)CCN1CCCC1 [BD 1008]
DA levels at 2 hr after injection, antagonist alone ([1]; 10 mg/kg i.p., administered alone): ~75 % of basal control values

CN(C)CCN(C)CCc1ccc(Cl)c(Cl)c1 [BD 1047]
σ2/σ1 (σ2 receptor): 15.2

CN1CCN(CCc2ccc(Cl)c(Cl)c2)CC1 [BD 1063]
later decrease in DA levels, antagonist alone [1, 2]: about 80 % of baseline | transient (<30 min) non-significant increase in DA levels, antagonist alone [1, 2]: about 30% | σ2/σ1 (σ2 receptor): 70.9

COC(=O)[C@H]1[C@@H](OC(=O)c2ccccc2)C[C@@H]2CC[C@H]1N2C [Cocaine, (−)-cocaine hydrochloride]
time for DA levels to return to basal levels after injection ([1]; i.v.): ≤ 50 min | Ki (σ1 receptor): 5.19 µM

Cc1ccccc1N=C(N)Nc1ccccc1C [DTG]
time of maximal effect on DA levels ([1]; 3.2 mg/kg i.v.): 20 min | time of maximal effect on DA levels ([1]; 5.6 mg/kg i.v.): ≤ 10 min | acute toxicity ([1]; i.v., doses higher than 5.6 mg/kg): signs of acute toxicity | time for DA levels to return to basal levels after injection ([1]; i.v.): ≤ 45 min

CC(=O)c1ccc2c(c1)oc(=O)n2CCCCN1CCN(c2ccc(F)cc2)CC1 [SN79]
effect on extracellular levels of DA, antagonist alone ([1]; 1–3 mg/kg i.p., up to 100 min after administration): did not significantly modify
